# System: HBV rcDNA
# Test: HepDE19 assay with bDNA quantitation of HBV rcDNA
# Type: cell-based, hepatitis B virus (HBV)
# Details: HepDE19 cells, 7 day incubation, rcDNA measured by Quantigene 2.0 bDNA assay, top concentration 25 μM; read-out: DE-19bDNA EC50
# Description: HepDE19 assay with bDNA quantitation of HBV rcDNA:
# HepDE19 (50,000 cells/well) were plated in 96-well collagen-coated tissue-culture treated microtiter plates in DMEM/F12 medium supplemented with 10% fetal bovine serum, 1% penicillin-streptomycin and 1 μg/mL tetracycline and incubated in a humidified incubator at 37° C. and 5% CO2 overnight. Next day, the cells were switched to fresh medium without tetracycline and incubated for 4 hours at 37° C. and 5% CO2. […] The final DMSO concentration in the assay was 0.5%. The plates were incubated for 7 days in a humidified incubator at 37° C. and 5% CO2. Following a 7 day-incubation, the level of rcDNA present in the inhibitor-treated wells was measured using a Quantigene 2.0 bDNA assay kit (Affymetrix, Santa Clara, CA) with HBV specific custom probe set and manufacturers instructions. Concurrently, the effect of compounds on cell viability was assessed using replicate plates, plated at a density of 5,000 cells/well and incubated for 4 days, to determine the ATP content as a measure of cell viability using the cell-titer glo reagent (CTG; Promega Corporation, Madison, WI) as per manufacturer's instructions.
row,SMILES,EC50 [µM]
1,"CC(c1c[nH]c(=O)c2cc(F)c(F)cc12)N(C)C(=O)c1cc2ccccc2[nH]1 (single isomer, unassigned) [Compound 1, N-(1-(6,7-Difluoro-1-oxo-1,2-dihydroisoquinolin-4-yl)ethyl)-N-methyl-1H-indole-2-carboxamide]",2.5
2,"CC(c1c[nH]c(=O)c2cc(F)c(F)cc12)N(C)C(=O)c1cc2ccccc2[nH]1 (single isomer, unassigned) [Compound 2, N-(1-(6,7-Difluoro-1-oxo-1,2-dihydroisoquinolin-4-yl)ethyl)-N-methyl-1H-indole-2-carboxamide]",0.02
3,"CC(C)CN(C(=O)c1cc2ccccc2[nH]1)C(C)c1c[nH]c(=O)c2cc(F)c(F)cc12 (single isomer, unassigned) [Compound 3, N-(1-(6,7-Difluoro-1-oxo-1,2-dihydroisoquinolin-4-yl)ethyl)-N-isobutyl-1H-indole-2-carboxamide]",0.67
4,"CC(C)CN(C(=O)c1cc2ccccc2[nH]1)C(C)c1c[nH]c(=O)c2cc(F)c(F)cc12 (single isomer, unassigned) [Compound 4, N-(1-(6,7-Difluoro-1-oxo-1,2-dihydroisoquinolin-4-yl)ethyl)-N-isobutyl-1H-indole-2-carboxamide]",0.01
5,"CCN(C(=O)c1cc2ccccc2[nH]1)C(C)c1c[nH]c(=O)c2cc(F)c(F)cc12 (single isomer, unassigned) [Compound 5, N-(1-(6,7-Difluoro-1-oxo-1,2-dihydroisoquinolin-4-yl)ethyl)-N-ethyl-1H-indole-2-carboxamide]",1.7
6,"CCN(C(=O)c1cc2ccccc2[nH]1)C(C)c1c[nH]c(=O)c2cc(F)c(F)cc12 (single isomer, unassigned) [Compound 6, N-(1-(6,7-Difluoro-1-oxo-1,2-dihydroisoquinolin-4-yl)ethyl)-N-ethyl-1H-indole-2-carboxamide]",0.01
7,"CC(c1c[nH]c(=O)c2cc(F)c(F)cc12)N(C)C(=O)c1cc2c(F)cccc2[nH]1 (single isomer, unassigned) [Compound 7, N-(1-(6,7-Difluoro-1-oxo-1,2-dihydroisoquinolin-4-yl)ethyl)-4-fluoro-N-methyl-1H-indole-2-carboxamide]",1.7
8,"CC(c1c[nH]c(=O)c2cc(F)c(F)cc12)N(C)C(=O)c1cc2c(F)cccc2[nH]1 (single isomer, unassigned) [Compound 8, N-(1-(6,7-Difluoro-1-oxo-1,2-dihydroisoquinolin-4-yl)ethyl)-4-fluoro-N-methyl-1H-indole-2-carboxamide]",0.02
9,"CC(c1c[nH]c(=O)c2cc(F)c(F)cc12)N(C)C(=O)c1cc2ccc(F)cc2[nH]1 (single isomer, unassigned) [Compound 11, N-(1-(6,7-Difluoro-1-oxo-1,2-dihydroisoquinolin-4-yl)ethyl)-6-fluoro-N-methyl-1H-indole-2-carboxamide]",1.2
10,"CC(c1c[nH]c(=O)c2cc(F)c(F)cc12)N(C)C(=O)c1cc2ccc(F)cc2[nH]1 (single isomer, unassigned) [Compound 12, N-(1-(6,7-Difluoro-1-oxo-1,2-dihydroisoquinolin-4-yl)ethyl)-6-fluoro-N-methyl-1H-indole-2-carboxamide]",0.02
11,"CC(c1c[nH]c(=O)c2cc(F)c(F)cc12)N(C)C(=O)c1cc2cccc(F)c2[nH]1 (single isomer, unassigned) [Compound 13, N-(1-(6,7-Difluoro-1-oxo-1,2-dihydroisoquinolin-4-yl)ethyl)-7-fluoro-N-methyl-1H-indole-2-carboxamide]",3.4
12,"CC(c1c[nH]c(=O)c2cc(F)c(F)cc12)N(C)C(=O)c1cc2cccc(F)c2[nH]1 (single isomer, unassigned) [Compound 14, N-(1-(6,7-Difluoro-1-oxo-1,2-dihydroisoquinolin-4-yl)ethyl)-7-fluoro-N-methyl-1H-indole-2-carboxamide]",0.02
13,"CC(c1c[nH]c(=O)c2cc(F)c(F)cc12)N(C)C(=O)c1cc2cc(F)c(F)cc2[nH]1 (single isomer, unassigned) [Compound 15, N-(1-(6,7-Difluoro-1-oxo-1,2-dihydroisoquinolin-4-yl)ethyl)-5,6-difluoro-N-methyl-1H-indole-2-carboxamide]",1.6
14,"CC(c1c[nH]c(=O)c2cc(F)c(F)cc12)N(C)C(=O)c1cc2cc(F)c(F)cc2[nH]1 (single isomer, unassigned) [Compound 16, N-(1-(6,7-Difluoro-1-oxo-1,2-dihydroisoquinolin-4-yl)ethyl)-5,6-difluoro-N-methyl-1H-indole-2-carboxamide]",0.01
15,"CC(c1c[nH]c(=O)c2cc(F)c(F)cc12)N(C)C(=O)c1cc2c(F)cc(F)cc2[nH]1 (single isomer, unassigned) [Compound 17, N-(1-(6,7-Difluoro-1-oxo-1,2-dihydroisoquinolin-4-yl)ethyl)-4,6-difluoro-N-methyl-1H-indole-2-carboxamide]",2.5
16,"CC(c1c[nH]c(=O)c2cc(F)c(F)cc12)N(C)C(=O)c1cc2c(F)cc(F)cc2[nH]1 (single isomer, unassigned) [Compound 18, N-(1-(6,7-Difluoro-1-oxo-1,2-dihydroisoquinolin-4-yl)ethyl)-4,6-difluoro-N-methyl-1H-indole-2-carboxamide]",0.02
17,"CC(c1c[nH]c(=O)c2cc(F)c(F)cc12)N(C)C(=O)[C@@H]1Cc2ccccc2CN1 (single isomer, unassigned) [Compound 19]",0.82
18,"CC(c1c[nH]c(=O)c2cc(F)c(F)cc12)N(C)C(=O)[C@@H]1Cc2ccccc2CN1 (single isomer, unassigned) [Compound 20]",9.2
19,"CC(c1c[nH]c(=O)c2cc(F)c(F)cc12)N(C)C(=O)[C@H]1Cc2ccccc2N1 (single isomer, unassigned) [Compound 21]",0.3

# Same assay, conditions: Hepatitis B virus, HepDE19, 168 h, HepDE19 cells, 7 day incubation, rcDNA measured by Quantigene 2.0 bDNA assay, top concentration 25 μM; read-out: DE-19bDNA EC50
row,SMILES,EC50 [µM]
1,"CC(c1c[nH]c(=O)c2cc(F)c(F)cc12)N(C)C(=O)c1cc2c(F)c(F)ccc2[nH]1 (racemic) [Compound 29, N-(1-(6,7-Difluoro-1-oxo-1,2-dihydroisoquinolin-4-yl)ethyl)-4,5-difluoro-N-methyl-1H-indole-2-carboxamide]",0.04
2,"CC(c1c[nH]c(=O)c2cc(F)c(F)cc12)N(C)C(=O)c1[nH]c2ccccc2c1Cl (racemic) [Compound 60, 3-Chloro-N-(1-(6,7-difluoro-1-oxo-1,2-dihydroisoquinolin-4-yl)ethyl)-N-methyl-1H-indole-2-carboxamide]",0.8
3,"CC(C)CN(C(=O)c1cc2ccccn2c1)C(C)c1c[nH]c(=O)c2cc(F)c(F)cc12 (racemic) [Compound 116, N-(1-(6,7-Difluoro-1-oxo-1,2-dihydroisoquinolin-4-yl)ethyl)-N-isobutylindolizine-2-carboxamide]",0.08
4,"CC(C)CN(C(=O)c1ccc(C(F)(F)F)c(F)c1)C(C)c1c[nH]c(=O)c2cc(F)c(F)cc12 (racemic) [Compound 117, N-(1-(6,7-Difluoro-1-oxo-1,2-dihydroisoquinolin-4-yl)ethyl)-3-fluoro-N-isobutyl-4-(trifluoromethyl)benzamide]",0.24
5,"CC(C)CN(C(=O)c1ccc(C(F)(F)F)c(F)c1)C(C)c1c[nH]c(=O)c2c(F)c(F)ccc12 (racemic) [Compound 118, N-(1-(7,8-Difluoro-1-oxo-1,2-dihydroisoquinolin-4-yl)ethyl)-3-fluoro-N-isobutyl-4-(trifluoromethyl)benzamide]",2.23
6,"CC(c1c[nH]c(=O)c2cc(F)c(F)cc12)N(C)C(=O)C(=O)NC1CC1 (racemic) [Compound 143, N1-Cyclopropyl-N2-(1-(6,7-difluoro-1-oxo-1,2-dihydroisoquinolin-4-yl)ethyl)-N2-methyloxalamide]",≥ 25
7,"CC(c1c[nH]c(=O)c2cc(F)c(F)cc12)N(C)C(=O)C(=O)Nc1ccc(F)c(Cl)c1 (racemic) [Compound 144, N1-(3-Chloro-4-fluorophenyl)-N2-(1-(6,7-difluoro-1-oxo-1,2-dihydroisoquinolin-4-yl)ethyl)-N2-methyloxalamide]",1.44

# Same assay, conditions: Hepatitis B virus, HepDE19, 168 h, read-out: DE-19bDNA EC50 (μM), HepDE19 cells, 7 day incubation, rcDNA measured by Quantigene 2.0 bDNA assay, top concentration 25 μM
row,SMILES,EC50 [µM]
1,"CC(c1c[nH]c(=O)c2cc(F)c(F)cc12)N(C)C(=O)Cc1cc2ccccc2[nH]1 (racemic) [Compound 59, N-(1-(6,7-Difluoro-1-oxo-1,2-dihydroisoquinolin-4-yl)ethyl)-2-(1H-indol-2-yl)-N-methylacetamide]",0.91

# Same assay, conditions: read-out: DE-19bDNA EC50; HepDE19 cells, 7 day incubation, rcDNA measured by Quantigene 2.0 bDNA assay, top concentration 25 μM
row,SMILES,EC50 [µM]
1,"CC(c1c[nH]c(=O)c2cc(F)c(F)cc12)N(C)C(=O)c1cc2cc(F)ccc2[nH]1 (single isomer, unassigned) [Compound 9, N-(1-(6,7-Difluoro-1-oxo-1,2-dihydroisoquinolin-4-yl)ethyl)-5-fluoro-N-methyl-1H-indole-2-carboxamide]",1.6
2,"CC(c1c[nH]c(=O)c2cc(F)c(F)cc12)N(C)C(=O)c1cc2cc(F)ccc2[nH]1 (single isomer, unassigned) [Compound 10, N-(1-(6,7-Difluoro-1-oxo-1,2-dihydroisoquinolin-4-yl)ethyl)-5-fluoro-N-methyl-1H-indole-2-carboxamide]",0.02
